The target in this assay is FAK (411-686, activated by Src and repurified) (Homo sapiens, UniProt Q05397). Description: FAK Biochemical Assay (cell-free, HTRF). Conditions: 10 μM ATP, read-out: 50% inhibitory concentrations (IC50) against focal adhesion kinase in the cell-free assay. The method, then:
All experiments were performed in Greiner FIA black 384-well low volume plates.
A 5 μl mixture of a 200 nM Ulight-poly GT substrate (Perkin Elmer) and 10 μM ATP in Kinase buffer (50 mM Hepes pH 7.3, 10 mM MgCl2, 1 mM EGTA, 0.01% Tween-20, 2 mM dithriothreitol) was dispensed into the wells. […] of 90% DMSO/10% water containing the compounds to be tested was added to the wells. Kinase reaction was started by addition of 5 μl of 1 nM FAK (411-686, activated by Src and repurified) in Kinase buffer. After 50 min at RT the reaction was stopped with 5 μl of 40 mM EDTA in detection buffer (Perkin Elmer, Lance detection buffer) followed by a 5 μl addition of 8 nM LANCE Ei-W1024 anti-phosphotyrosine (PY20) antibody in detection buffer. After 1 h incubation at RT the plate was read on the Viewlux in HTRF mode.
(In general: TR-FRET usually uses a lanthanide donor and a delayed reading to cut background.)

FAK (411-686, activated by Src and repurified), sequence (Q05397 411-686, species assumed): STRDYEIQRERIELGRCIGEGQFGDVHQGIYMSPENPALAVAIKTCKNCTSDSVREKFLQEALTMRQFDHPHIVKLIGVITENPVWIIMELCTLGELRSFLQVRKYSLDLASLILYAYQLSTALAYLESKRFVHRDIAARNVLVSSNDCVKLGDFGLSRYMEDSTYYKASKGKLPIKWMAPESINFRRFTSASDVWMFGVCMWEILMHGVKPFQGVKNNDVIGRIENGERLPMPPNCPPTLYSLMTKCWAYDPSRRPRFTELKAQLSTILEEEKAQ

For the compound `CN1Cc2cccc(Nc3cc(Nc4cccc5c4C(=O)N(C)C5)c(C(F)(F)F)cn3)c2C1=O` [Compound 3, 7,7′-(5-(trifluoromethyl)pyridine-2,4-diyl)bis(azanediyl)bis(2-methylisoindolin-1-one)], the IC50 is greater than 10 µM.
The figure for `CNS(=O)(=O)c1ccccc1Nc1cc(Nc2ccccc2S(=O)(=O)NC)c(C(F)(F)F)cn1` [Compound 5] is greater than 10 µM.

For the origin of these results see patent US9580439B2, “Inhibitors of focal adhesion kinase” (The Scripps Research Institute, priority 2007, dated 2017).
